Experimental data taken from patent US7829754B2, “Method of cleaning heavy metals-containing soil” (Chubu Electric Power Co., Inc., priority 2004, dated 2010).
Where two headings read alike, the source gives them in different places.

Format: physicochemical
Protocol: <Experiment 1. Test of Comparing Lead Dissolving Out Ability of Chelating Agent>
In order to study a kind of a chelating agent to be added to a contaminated soil, the lead dissolving out abilities of 26 types of chelating agents (chelate reagents) were compared (FIG. 2).
2) Chelating agent: Each chelating agent of 100 mmol·dm^−3 and pH 5.8 was prepared.
3) Five grams of 1) the subject soil and 50 ml of 2) the chelating agent were put into to a 100 ml vessel, and shaken (200 times/min) at 20° C. for 6 hours. Repeated cycle was 3.
4) For comparison, a contrast section was prepared, in which desalted water was added instead of the chelating agent in the 3).
5) After shaking, the sample after filtration was centrifuged at 15000 rpm for 5 minutes, and the supernatant liquid was further centrifuged again under the same condition.
6) From the separated supernatant liquid, a lead concentration was measured with an inductively coupled high frequency plasma spectrometry (ICP) device.

[1] = chelating agent 100 mmol·dm^−3, pH 5.8, Soil A, shaken at 20° C. for 6 hours, FIG. 2

Compound | lead dissolving out ability (pH 5.8) | lead dissolving out ability [1]
O=C([O-])CC(NCCNC(CC(=O)O)C(=O)[O-])C(=O)[O-].[Na+].[Na+].[Na+] (stereo not shown) [EDDS·3Na, disodium ethylenediamine succinate] | high lead dissolving out ability | 
N[C@@H](CS)C(=O)O [L-cysteine] |  | high lead dissolving out ability
O=C(O)CC(O)(CC(=O)O)C(=O)O [citric acid] | high lead dissolving out ability | 
tetrasodium L-glutamic acid diacetate [GLDA·4Na] |  | high lead dissolving out ability
